In patent US20240208989A1, “NOVEL 12-EPI-MUTILIN COMPOUNDS AND USES THEREOF” (NABRIVA THERAPEUTICS GMBH, priority 2021, published 2024):
Converted amounts (≈) assume the structure as drawn. Counter-ions that a name gives are not always drawn. Like-named read-outs stand apart in the source and are kept apart here.

Legend:
[1] = tested on: Streptococcus agalactiae lsa(E); experiment: MIC by standard broth microdilution (CLSI), CAMHB; type: cell-based; details: for MIC: Streptococcus agalactiae, read-out: MIC Streptococcus agalactiae lsa(E) (n = 2), Lefamulin resistant, n = 2 isolates
Method: (§1) The in vitro activity against bacteria including isolates that are resistant to Lefamulin was determined by standard broth microdilution according to the Clinical and Laboratory Standards Institute CLSI document (Performance Standards for Antimicrobial Susceptibility Testing) M100Ed29E (2019) and (Methods for Dilution Antimicrobial Susceptibility Test for Bacteria That Grow Aerobically) M07Ed11 (2018) or other years' versions thereof. The data were obtained using cation-adjusted Mueller Hinton broth medium (CAMHB).

[2] = tested on: Streptococcus pneumoniae ATCC49619; experiment: MIC by standard broth microdilution (CLSI), CAMHB; type: cell-based; details: for MIC: Streptococcus pneumoniae, ATCC49619
Method: as §1

[3] = tested on: Staphylococcus aureus vga(A) (+); experiment: MIC by standard broth microdilution (CLSI), CAMHB; type: cell-based; details: Lefamulin resistant; for MIC: Staphylococcus aureus
Method: as §1

[4] = tested on: Staphylococcus aureus ATCC49951; experiment: MIC by standard broth microdilution (CLSI), CAMHB; type: cell-based; details: for MIC: Staphylococcus aureus, ATCC49951
Method: as §1

[5] = tested on: Staphylococcus aureus cfr (+); experiment: MIC by standard broth microdilution (CLSI), CAMHB; type: cell-based; details: for MIC: Staphylococcus aureus, read-out: MIC Staphylococcus aureus cfr (+) (n = 2), Lefamulin resistant, n = 2 isolates
Method: as §1

Borreliella spp. = experiment: MIC by broth microdilution against Borreliella strains; type: cell-based, Borreliella burgdorferi (n=5) and Borreliella garinii (n=1); details: BSK II medium, n = 6 isolates
Method: Minimal inhibitory concentrations (MIC) were determined against five (n=5) Borreliella burgdorferi isolates (ATCC 51990, 55131, 35211, 35210, 53899) and one (n=1) Borreliella garinii isolate (ATCC 51991) by broth microdilution technique ([…]., Jorgensen, J. H., Barbour, A. G. In vitro antimicrobial susceptibility testing of Boreliella burgdorferi: a microdilution MIC method and time-kill studies. […] Feng, J., Wang, T., Shi, W., et al. Identification of novel activity against Boreliella burgdorferi persisters using an FDA approved drug library. […] (2018) Methods for dilution antimicrobial susceptibility tests for bacteria that grow aerobically: Eleventh edition. […]; CLSI. (2021) Performance Standards for Antimicrobial Susceptibility Testing: Thirty-first Edition. M100-S31). Briefly, Borreliella spp. were grown at 36° C. under microaerophilic conditions in BSK II medium until the logarithmic or stationary growth phase was reached. The growth phase was determined by semiquantitative measurement of active and dormant cells by fluorescence microscopy of cells stained with the fluorescent dyes SYBR Green I and propidium iodide. An inoculum of 10^5-10^6 spirochetes/mL was used to inoculate broth microdilution plates containing serially 2-fold diluted test compounds.

Cutibacterium granulosum = experiment: MIC by standard agar dilution (CLSI M11), anaerobic; type: cell-based; details: Wilkins-Chalgren-Agar, 48 h, 37° C., read-out: MIC Cutibacterium granulosum (n = 7)
Cutibacterium avidum = experiment: as above; type: cell-based; details: Wilkins-Chalgren-Agar, 48 h, 37° C., read-out: MIC Cutibacterium avidum (n = 5)
Cutibacterium acnes = experiment: as above; type: cell-based; details: Wilkins-Chalgren-Agar, 48 h, 37° C., read-out: MIC Cutibacterium acnes (n = 5)
[6] = Cytotoxicity, human hepatocyte assay (ATPlite); type: cell-based; details: primary human hepatocytes
Method: The cytotoxicity for compounds of the present invention was determined using a human hepatocyte assay. Primary human hepatocytes were incubated with various test compound concentrations (in triplicate) for 2 hours. Viability of cells is then measured by the luminescence ATPlite detection assay system according to the manufacturer (Perkin Elmer). ATP is a marker for cell viability because it is present in all metabolically active cells and the concentration declines very rapidly when the cells undergo necrosis or apoptosis. The ATPlite assay system is based on the production of light caused by the reaction of ATP with added luciferase and D-luciferin, where the emitted light is proportional to the ATP concentration (within certain limits).

[7] = 192 h, stationary growth phase, read after 8 days, read-out: MIC (μg/mL) for Stationary Growth Phase Culture (n = 6)
[8] = logarithmic growth phase, read after 5 or 6 days, read-out: MIC (μg/mL) for Logarithmic Growth Phase Culture (n = 6)
[9] = Lefamulin resistant, n = 2 isolates

| Molecule | MIC (Borreliella spp.; [7]) | MIC (Borreliella spp.; [8]) | MIC (Cutibacterium granulosum) | MIC (Cutibacterium avidum) | MIC (Cutibacterium acnes) | also measured |
| --- | --- | --- | --- | --- | --- | --- |
| C=C[C@]1(C)C[C@@H](OC(=O)CS[C@@H]2CC[C@@H](N)C[C@H]2O)[C@]2(C)[C@H](C)CC[C@]3(CCC(=O)[C@H]32)[C@@H](C)[C@@H]1O [Lefamulin, reference compound] | 0.001 to 0.008 µg/mL (≈ 0.00197 to 0.0158 µM) | 0.001 to 0.008 µg/mL (≈ 0.00197 to 0.0158 µM) | 0.015 to 0.25 µg/mL (≈ 0.0295 to 0.492 µM) | 0.03 to 0.06 µg/mL (≈ 0.0591 to 0.118 µM) | 0.03 to 0.5 µg/mL (≈ 0.0591 to 0.985 µM) | MIC [1]: 16 µg/mL (≈ 31.5 µM); MIC [2]: ≤ 0.03 µg/mL; MIC [3]: 8 µg/mL (≈ 15.8 µM); MIC [4]: ≤ 0.03 µg/mL; MIC [5]: 16 µg/mL (≈ 31.5 µM) |
| C=C[C@]1(C)C[C@@H](OC(=O)CO)[C@]2(C)[C@H](C)CC[C@]3(CCC(=O)[C@H]32)[C@@H](C)[C@@H]1O [Pleuromutilin] | 0.12 to 2 µg/mL (≈ 0.317 to 5.28 µM) | 0.12 to 1 µg/mL (≈ 0.317 to 2.64 µM) | – | – | – | – |
| Cc1nccnc1/C=C/[C@@]1(C)C[C@@H](OC(=O)CS[C@H]2CO[C@H]3[C@@H]2OC[C@@H]3N)[C@]2(C)[C@H](C)CC[C@]3(CCC(=O)[C@H]32)[C@@H](C)[C@@H]1O [Example 3, 12-epi-12-Desvinyl-14-O-{[(3S,3aR,6S,6aS)-3-amino-2,3,3a,5,6,6a-hexahydrofuro[3,2-b]furan-6-yl]sulfanylacetyl}-12-[(E)-2-(3-methyl-pyrazin-2-yl)-ethenyl]-mutilin dihydrochloride] | 0.001 to 0.008 µg/mL | 0.001 to 0.004 µg/mL | 0.015 to 0.12 µg/mL | 0.03 to 0.25 µg/mL | 0.03 to 0.5 µg/mL | MIC [1]: 0.5 to 1 µg/mL; MIC [2]: ≤ 0.03 µg/mL; MIC [3]: 1 µg/mL; MIC [4]: ≤ 0.03 µg/mL; MIC [5]: 1 µg/mL; IC50 at 2 h [6]: > 433 µM |
| CO/N=C(\C(=O)N[C@@H]1C(=O)N2C(C(=O)O)=C(COC(N)=O)CS[C@H]12)c1ccco1 [Cefuroxime] | 0.016 to 0.25 µg/mL (≈ 0.0377 to 0.589 µM) | 0.016 to 0.25 µg/mL (≈ 0.0377 to 0.589 µM) | – | – | – | – |
| C[C@@H]1CC[C@@]23CCC(=O)[C@H]2[C@]1(C)[C@H](OC(=O)CS[C@H]1CO[C@H]2[C@@H]1OC[C@@H]2N)C[C@](C)(/C=C/c1cccnc1)[C@@H](O)[C@@H]3C [Example 1, 12-epi-12-Desvinyl-14-O-{[(3S,3aR,6S,6aS)-3-amino-2,3,3a,5,6,6a-hexahydrofuro[3,2-b]furan-6-yl]sulfanylacetyl}-12-[(E)-2-(3-pyridyl)-ethenyl]-mutilin dihydrochloride] | 0.001 to 0.004 µg/mL | 0.001 to 0.002 µg/mL | 0.015 to 0.03 µg/mL | 0.015 to 0.06 µg/mL | 0.015 to 0.12 µg/mL | MIC [1]: 0.06 to 0.12 µg/mL; MIC [2]: ≤ 0.03 µg/mL; MIC [3]: 0.5 µg/mL; MIC [4]: ≤ 0.03 µg/mL; MIC [5]: 0.12 to 0.5 µg/mL; IC50 at 2 h [6]: 215 µM |
| CC1(C)S[C@@H]2[C@H](NC(=O)[C@H](N)c3ccc(O)cc3)C(=O)N2[C@H]1C(=O)O [Amoxicillin] | 0.03 to 0.12 µg/mL (≈ 0.0821 to 0.328 µM) | 0.03 to 0.12 µg/mL (≈ 0.0821 to 0.328 µM) | – | – | – | – |
| C[C@@H]1CC[C@@]23CCC(=O)[C@H]2[C@]1(C)[C@H](OC(=O)CS[C@H]1CO[C@H]2[C@@H]1OC[C@@H]2N)C[C@](C)(/C=C/c1cncnc1)[C@@H](O)[C@@H]3C [Example 2, 12-epi-12-Desvinyl-14-O-{[(3S,3aR,6S,6aS)-3-amino-2,3,3a,5,6,6a-hexahydrofuro[3,2-b]furan-6-yl]sulfanylacetyl}-12-[(E)-2-(pyrimidin-5-yl)-ethenyl]-mutilin dihydrochloride] | 0.001 to 0.004 µg/mL | 0.001 to 0.002 µg/mL | 0.015 to 0.03 µg/mL | 0.015 to 0.06 µg/mL | 0.015 to 0.12 µg/mL | MIC [1]: 0.03 to 0.06 µg/mL; MIC [2]: ≤ 0.03 µg/mL; MIC [3]: 1 µg/mL; MIC [4]: ≤ 0.03 µg/mL; MIC [5]: 0.12 to 1 µg/mL; IC50 at 2 h [6]: > 609 µM |
| Cc1nccnc1/C=C/[C@@]1(C)C[C@@H](OC(=O)CSC2CCNCC2)[C@]2(C)[C@H](C)CC[C@]3(CCC(=O)[C@H]32)[C@@H](C)[C@@H]1O [BC-9842, 12-epi-12-desvinyl-14-O-[(Piperidin-4-ylsulfanyl]-acetyl]-12-[2-(3-methyl-pyrazin-2-yl)-ethenyl]-mutilin] | 0.001 to 0.004 µg/mL (≈ 0.00175 to 0.00702 µM) | 0.001 to 0.004 µg/mL (≈ 0.00175 to 0.00702 µM) | 0.015 to 0.12 µg/mL (≈ 0.0263 to 0.211 µM) | 0.015 to 0.25 µg/mL (≈ 0.0263 to 0.439 µM) | 0.03 to 0.05 µg/mL (≈ 0.0526 to 0.0877 µM) | – |
| C[C@H]1c2cccc(O)c2C(=O)C2=C(O)[C@]3(O)C(=O)C(C(N)=O)=C(O)[C@@H](N(C)C)[C@@H]3[C@@H](O)[C@@H]21 [Doxycycline] | 0.03 to 0.5 µg/mL (≈ 0.0675 to 1.13 µM) | 0.03 to 0.5 µg/mL (≈ 0.0675 to 1.13 µM) | – | – | – | – |
| CC[C@H]1OC(=O)[C@H](C)[C@@H](O[C@H]2C[C@@](C)(OC)[C@@H](O)[C@H](C)O2)[C@H](C)[C@@H](O[C@@H]2O[C@H](C)C[C@H](N(C)C)[C@H]2O)[C@](C)(O)C[C@@H](C)CN(C)[C@H](C)[C@@H](O)[C@]1(C)O [Azithromycin] | 0.001 to 0.004 µg/mL (≈ 0.00134 to 0.00534 µM) | 0.001 to 0.004 µg/mL (≈ 0.00134 to 0.00534 µM) | – | – | – | – |
| C[C@H]1COc2c(N3CCN(C)CC3)c(F)cc3c(=O)c(C(=O)O)cn1c23 [Levofloxacin] | 2 to 8 µg/mL (≈ 5.53 to 22.1 µM) | 2 to 4 µg/mL (≈ 5.53 to 11.1 µM) | – | – | – | – |
| CC[C@H]1OC(=O)[C@H](C)[C@@H](O[C@H]2C[C@@](C)(OC)[C@@H](O)[C@H](C)O2)[C@H](C)[C@@H](O[C@@H]2O[C@H](C)C[C@H](N(C)C)[C@H]2O)[C@](C)(O)C[C@@H](C)C(=O)[C@H](C)[C@@H](O)[C@]1(C)O [Erythromycin] | 0.001 to 0.004 µg/mL (≈ 0.00136 to 0.00545 µM) | 0.002 to 0.016 µg/mL (≈ 0.00273 to 0.0218 µM) | – | – | – | – |
| CO/N=C(\C(=O)N[C@@H]1C(=O)N2C(C(=O)O)=C(CSc3nc(=O)c(=O)[nH]n3C)CS[C@H]12)c1csc(N)n1 [Ceftriaxone] | 0.004 to 0.03 µg/mL (≈ 0.00721 to 0.0541 µM) | 0.004 to 0.016 µg/mL (≈ 0.00721 to 0.0289 µM) | – | – | – | – |
| 12-epi-12-desvinyl-14-O-[(azepan-4-ylsulfanyl)-acetyl]-12-((E)-2-pyridin-3-yl-ethenyl) mutilin hydrochloride [Example 154 of WO 2015/110481, reference compound] | – | – | – | – | – | MIC Streptococcus agalactiae lsa(E) (n = 2) [1, 9]: 4 to 8 µg/mL; MIC Streptococcus pneumoniae ATCC49619 [2]: ≤0.03 µg/mL; MIC Staphylococcus aureus vga(A) (+) [3]: 2 to 4 µg/mL; MIC Staphylococcus aureus ATCC49951 [4]: ≤0.03 µg/mL; MIC Staphylococcus aureus cfr (+) (n = 2) [5, 9]: 0.5 to 4 µg/mL |
